Biological target: T1, Human SGLT2 (hSGLT2) (Homo sapiens, UniProt P31639)
T1 construct: expressed in transfected cells
T1 sequence (P31639 1-672): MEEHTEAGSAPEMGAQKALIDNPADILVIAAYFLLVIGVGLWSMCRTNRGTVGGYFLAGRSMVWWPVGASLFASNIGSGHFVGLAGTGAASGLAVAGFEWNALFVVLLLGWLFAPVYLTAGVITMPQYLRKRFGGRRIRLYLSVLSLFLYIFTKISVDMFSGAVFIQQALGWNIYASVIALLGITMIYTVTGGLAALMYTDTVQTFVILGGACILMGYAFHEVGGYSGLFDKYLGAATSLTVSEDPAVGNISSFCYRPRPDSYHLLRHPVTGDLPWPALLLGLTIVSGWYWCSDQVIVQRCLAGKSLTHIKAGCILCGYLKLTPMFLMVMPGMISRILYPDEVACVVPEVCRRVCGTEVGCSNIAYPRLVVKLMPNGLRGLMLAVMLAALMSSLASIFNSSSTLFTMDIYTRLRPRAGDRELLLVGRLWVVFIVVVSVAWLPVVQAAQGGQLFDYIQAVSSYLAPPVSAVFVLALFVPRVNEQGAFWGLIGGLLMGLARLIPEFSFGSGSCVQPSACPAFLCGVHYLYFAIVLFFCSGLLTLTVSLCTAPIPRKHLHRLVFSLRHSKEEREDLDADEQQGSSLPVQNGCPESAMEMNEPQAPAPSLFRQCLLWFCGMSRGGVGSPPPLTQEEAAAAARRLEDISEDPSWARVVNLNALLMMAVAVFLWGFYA
Assay: Sodium-dependent glucose transport (14C-AMG uptake) assay in CHO cells stably expressing hSGLT2
Format: cell-based
Settings: CHO cells expressing hSGLT2, 14C-AMG uptake, 37° C. for 2 h; single determinations; read-out: hSGLT2 Inhibitory Activity IC50
Method in brief: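 CHO cells stably expressing human SGLT2, preincubated 10 min at 37 °C in sodium-free choline buffer, then 2 h at 37 °C in Na+ buffer with 1 mM AMG plus 8 μM 14C-AMG and inhibitor. Washed cells counted by scintillation; IC50 by nonlinear regression.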

SMILES	IC50
OC[C@H]1O[C@@H](c2cc(Cc3ncc(-c4ccc(F)cc4)s3)c(O)c3ccccc23)[C@H](O)[C@@H](O)[C@@H]1O [Example 123, (2S,3R,4R,5S,6R)-2-(3-((5-(4-Fluorophenyl)thiazol-2-yl)methyl)-4-hydroxynaphthalen-1-yl)-6-(hydroxymethyl)-tetrahydro-2H-pyran-3,4,5-triol]	0.0582 µM
OC[C@H]1O[C@@H](c2cc(Cc3ncc(-c4cccs4)s3)c(O)c3ccccc23)[C@H](O)[C@@H](O)[C@@H]1O [Example 124, (2S,3R,4R,5S,6R)-2-(4-Hydroxy-3-((5-(thiophen-2-yl)thiazol-2-yl)methyl)naphthalen-1-yl)-6-(hydroxymethyl)-tetrahydro-2H-pyran-3,4,5-triol]	0.00797 µM
OC[C@H]1O[C@@H](c2cc(Cc3ncc(-c4ccccc4)s3)c(O)c3ccccc23)[C@H](O)[C@@H](O)[C@@H]1O [Example 125, (2S,3R,4R,5S,6R)-2-(4-Hydroxy-3-((5-phenylthiazol-2-yl)methyl)naphthalen-1-yl)-6-(hydroxymethyl)-tetrahydro-2H-pyran-3,4,5-triol]	0.0306 µM
CCCc1cnc(Cc2cc([C@@H]3O[C@H](CO)[C@@H](O)[C@H](O)[C@H]3O)c3ccccc3c2O)s1 [Example 126, (2S,3R,4R,5S,6R)-2-(4-Hydroxy-3-((5-propylthiazol-2-yl)methyl)naphthalen-1-yl)-6-(hydroxymethyl)-tetrahydro-2H-pyran-3,4,5-triol]	0.0673 µM
CCCCCCCc1cnc(Cc2cc([C@@H]3O[C@H](CO)[C@@H](O)[C@H](O)[C@H]3O)c3ccccc3c2O)s1 [Example 127, (2S,3R,4R,5S,6R)-2-(3-((5-Heptylthiazol-2-yl)methyl)-4-hydroxynaphthalen-1-yl)-6-(hydroxymethyl)-tetrahydro-2H-pyran-3,4,5-triol]	0.0328 µM
CCOc1cnc(Cc2cc([C@@H]3O[C@H](CO)[C@@H](O)[C@H](O)[C@H]3O)c3ccccc3c2O)s1 [Example 128, (2S,3R,4R,5S,6R)-2-(3-((5-Ethoxythiazol-2-yl)methyl)-4-hydroxynaphthalen-1-yl)-6-(hydroxymethyl)-tetrahydro-2H-pyran-3,4,5-triol]	0.116 µM
OC[C@H]1O[C@]2(OCc3cc(Cl)c(C4(c5ncc(-c6cccs6)s5)CC4)cc32)[C@H](O)[C@@H](O)[C@@H]1O [Example 129, (1S,3′R,4′S,5′S,6′R)-5-Chloro-6′-(hydroxymethyl)-6-(1-(5-(thiophen-2-yl)thiazole-2-yl)cyclopropyl)-3′,4′,5′,6′-tetrahydro-3H-spiro[isobenzofuran-1,2′-pyran]-3′,4′,5′-triol]	0.16 µM
OC[C@H]1O[C@@H](n2cc(Cc3ncc(-c4ccco4)s3)c3ccccc32)[C@H](O)[C@@H](O)[C@@H]1O [Example 130, (2R,3R,4S,5S,6R)-2-(3-((5-(Furan-2-yl)thiazol-2-yl)methyl)-1H-indol-1-yl)-6-(hydroxymethyl)-tetrahydro-2H-pyran-3,4,5-triol]	0.00875 µM
OC[C@H]1O[C@@H](n2cc(Cc3ncc(-c4cccs4)s3)c3ccccc32)[C@H](O)[C@@H](O)[C@@H]1O [Example 131, (2R,3S,4S,5R,6R)-2-(Hydroxymethyl)-6-(3-((5-(thiophen-2-yl)thiazol-2-yl)methyl)-1H-indol-1-yl)tetrahydro-2H-pyran-3,4,5-triol]	0.0138 µM
Cc1cnc(Cc2cn([C@@H]3O[C@H](CO)[C@@H](O)[C@H](O)[C@H]3O)c3ccccc23)s1 [Example 132, (2R,3S,4S,5R,6R)-2-(Hydroxymethyl)-6-(3-((5-methylthiazol-2-yl)methyl)-1H-indol-1-yl)tetrahydro-2H-pyran-3,4,5-triol]	0.162 µM
CCc1cnc(Cc2cn([C@@H]3O[C@H](CO)[C@@H](O)[C@H](O)[C@H]3O)c3ccccc23)s1 [Example 133, (2R,3R,4S,5S,6R)-2-(3-((5-Ethylthiazol-2-yl)methyl)-1H-indol-1-yl)-6-(hydroxymethyl)tetrahydro-2H-pyran-3,4,5-triol]	0.18 µM
CCCc1cnc(Cc2cn([C@@H]3O[C@H](CO)[C@@H](O)[C@H](O)[C@H]3O)c3ccccc23)s1 [Example 134, (2R,3S,4S,5R,6R)-2-(Hydroxymethyl)-6-(3((5-propylthiazol-2-yl)methyl)-1H-indol-1-yl)tetrahydro-2H-pyran-3,4,5-triol]	0.108 µM
CCCCc1cnc(Cc2cn([C@@H]3O[C@H](CO)[C@@H](O)[C@H](O)[C@H]3O)c3ccccc23)s1 [Example 135, (2R,3R,4S,5S,6R)-2-(3((5-Butylthiazol-2-yl)methyl)-1H-indol-1-yl)-6-(hydroxymethyl)tetrahydro-2H-pyran-3,4,5-triol]	0.123 µM
CCCCCc1cnc(Cc2cn([C@@H]3O[C@H](CO)[C@@H](O)[C@H](O)[C@H]3O)c3ccccc23)s1 [Example 136, (2R,3S,4S,5R,6R)-2-(Hydroxymethyl)-6-(3-((5-pentylthiazol-2-yl)methyl)-1H-indol-1-yl)tetrahydro-2H-pyran-3,4,5-triol]	0.21 µM
OC[C@H]1O[C@@H](c2cn(Cc3ncc(-c4ccccc4)s3)c3ccccc23)[C@H](O)[C@@H](O)[C@@H]1O [Example 137, (2R,3S,4R,5R,6S)-2-(Hydroxymethyl)-6-(1-((5-phenylthiazol-2-yl)methyl)-1H-indol-3-yl)-tetrahydro-2H-pyran-3,4,5-triol]	0.124 µM
Cc1ccc(S(=O)(=O)OC[C@H]2O[C@@H](c3ccc(Cl)c(Cc4ncc(-c5ccco5)s4)c3)[C@H](O)[C@@H](O)[C@@H]2O)cc1 [Example 138, ((2R,3S,4R,5R,6S)-6-(4-Chloro-3-((5-(furan-2-yl)thiazol-2-yl)methyl)phenyl)-3,4,5-trihydroxy-tetrahydro-2H-pyran-2-yl)methyl 4-methylbenzenesulfonate]	0.156 µM
COC[C@H]1O[C@@H](c2ccc(Cl)c(Cc3ncc(-c4ccco4)s3)c2)[C@H](O)[C@@H](O)[C@@H]1O [Example 139, (2S,3R,4R,5S,6R)-2-(4-Chloro-3-((5-(furan-2-yl)thiazol-2-yl)methyl)phenyl)-6-(methoxymethyl)-tetrahydro-2H-pyran-3,4,5-triol]	0.0235 µM

The remaining lines, values ahead:

IC50	SMILES
0.0687 µM	CCOC[C@H]1O[C@@H](c2ccc(Cl)c(Cc3ncc(-c4ccco4)s3)c2)[C@H](O)[C@@H](O)[C@@H]1O [Example 140, (2S,3R,4R,5S,6R)-2-(4-Chloro-3-((5-(furan-2-yl)thiazol-2-yl)methyl)phenyl)-6-(ethoxymethyl)tetrahydro-2H-pyran-3,4,5-triol]
0.0309 µM	OCCOC[C@H]1O[C@@H](c2ccc(Cl)c(Cc3ncc(-c4ccco4)s3)c2)[C@H](O)[C@@H](O)[C@@H]1O [Example 141, (2S,3R,4R,5S,6R)-2-(4-Chloro-3-((5-(furan-2-yl)thiazol-2-yl)methyl)phenyl)-6-((2-hydroxyethoxy)methyl)tetrahydro-2H-pyran-3,4,5-triol]
0.0106 µM	O[C@@H]1[C@@H](O)[C@H](c2ccc(Cl)c(Cc3ncc(-c4ccco4)s3)c2)O[C@H](CF)[C@H]1O [Example 145, (2S,3R,4R,5S,6S)-2-(4-Chloro-3-((5-(furan-2-yl)thiazol-2-yl)methyl)phenyl)-6-(fluoromethyl)-tetrahydro-2H-pyran-3,4,5-triol]
0.00701 µM	C[C@H]1O[C@@H](c2ccc(Cl)c(Cc3ncc(-c4ccco4)s3)c2)[C@H](O)[C@@H](O)[C@@H]1O [Example 146, (2S,3R,4S,5S,6R)-2-(4-Chloro-3-((5-(furan-2-yl)thiazol-2-yl)methyl)phenyl)-6-methyl-tetrahydro-2H-pyran-3,4,5-triol]
0.024 µM	CCOC(=O)OC[C@H]1O[C@@H](c2ccc(Cl)c(Cc3ncc(-c4ccco4)s3)c2)[C@H](O)[C@@H](O)[C@@H]1O [Example 160, ((2R,3S,4R,5R,6S)-6-(4-Chloro-3-((5-(furan-2-yl)thiazol-2-yl)methyl)phenyl)-3,4,5-trihydroxytetrahydro-2H-pyran-2-yl)methyl ethyl carbonate]
0.00508 µM	CCCCOC(=O)OC[C@H]1O[C@@H](c2ccc(Cl)c(Cc3ncc(-c4ccco4)s3)c2)[C@H](O)[C@@H](O)[C@@H]1O [Example 161, Butyl ((2R,3S,4R,5R,6S)-6-(4-chloro-3-((5-(furan-2-yl)thiazol-2-yl)methyl)phenyl)-3,4,5-trihydroxytetrahydro-2H-pyran-2-yl)methyl carbonate]
0.0799 µM	CC(C)(C)OC(=O)OC[C@H]1O[C@@H](c2ccc(Cl)c(Cc3ncc(-c4ccco4)s3)c2)[C@H](O)[C@@H](O)[C@@H]1O [Example 162, tert-Butyl ((2R,3S,4R,5R,6S)-6-(4-chloro-3-((5-(furan-2-yl)thiazol-2-yl)methyl)phenyl)-3,4,5-trihydroxytetrahydro-2H-pyran-2-yl)methyl carbonate]
0.0114 µM	C=CCOC(=O)OC[C@H]1O[C@@H](c2ccc(Cl)c(Cc3ncc(-c4ccco4)s3)c2)[C@H](O)[C@@H](O)[C@@H]1O [Example 163, Allyl ((2R,3S,4R,5R,6S)-6-(4-chloro-3-((5-(furan-2-yl)thiazol-2-yl)methyl)phenyl)-3,4,5-trihydroxytetrahydro-2H-pyran-2-yl)methyl carbonate]
